Read-outs that look alike come from different tables or passages of the source.
Assays:
P-gp [1] = biological target: T1, P-gp (Homo sapiens, UniProt P08183); details: cell monolayers in vitro; cited from earlier work
[2] = in vivo; cited from earlier work
P-gp [3] = biological target: T1, P-gp; details: cited from earlier work
[4] = Plasma rivaroxaban concentration-time data and noncompartmental PK: single 20 mg rivaroxaban alone (Period I) vs with steady-state verapamil 360 mg (Period III), mild renal impairment or normal renal function; details: for CL/F / half-life / Tmax: human, in vivo; for CL/F: CL/F/kg; for half-life: t1/2
Procedure: Subjects with either mild renal impairment or with normal renal function were enrolled.
Renal function of the subjects was determined by measuring creatinine clearance (CLcr) rates. Subjects who had CLCr≥90 ml/min were categorized as having normal renal function whereas subjects who had CLcr 50-79 ml/min were categorized as mild renal impaired. Blood samples were collected and processed according to the standard protocols.

[5] = Example 1 rivaroxaban-verapamil drug-drug interaction study: rivaroxaban plasma levels; format: in vivo, human; details: concomitant verapamil vs rivaroxaban alone
Procedure: Cmax and AUC values for each dose are calculated.

prothrombin time = assay: Prothrombin time (STAR Neoplastin method); format: in vivo, human
Excerpt: As used herein, the term “prothrombin time” (PT) refers to a blood test that measures how long it takes blood to clot. In some embodiments, a prothrombin time test can be used to measure of a patient's haemostasis. In some embodiments, PT can be used to measure the effectiveness or exposure to a blood clotting drug. Persons having skill in the art sometimes interchangeably refer to a PT test as an INR. […] Additionally, PT measurements are subject to variability based on the test reagent and laboratory test ranges determined by each institution.
(§1) Additional pharmacodynamic metrics are also gathered for each patient, including, but not limited to: prothrombin time (using the STAR Neoplastin® method) and Factor Xa activity.
Blood samples were collected and processed according to the standard protocols.

Factor Xa [6] = biological target: T2, Factor Xa (Homo sapiens, UniProt P00742); assay: Factor Xa activity in subjects; format: in vivo; details: concomitant verapamil vs rivaroxaban alone
T2 construct: host or cells: human subjects (ex vivo pharmacodynamics)
Excerpt: as §1

[7] = Relationship between steady state rivaroxaban AUC and risk of major bleeding (FIG. 5); format: in vivo, human
Procedure: All show the geometric mean plus or minus one standard deviation. […] These four show the geometric mean and the full minimum and maximum subject value range.
Group “c” represents the average of the three subjects in Group “b” who had the highest AUCinf, which was about 8,143 μg·hr/L. The risk of major bleeding of the subjects in Group “c” were at least 5 times higher compared to the populations in Group “a” and not even visible on this scale.

[8] = Reported rivaroxaban serious bleeding adverse events; format: in vivo, human; details: concomitantly administered patients, who are 22% of total population receiving rivaroxaban
Excerpt: 8, 2015, American Heart Association, Scientific Sessions 2015, and published at http://www.abstractsonline.com/pp8/#!/3795/presentation/37668).

[9] = fed subjects, studies 10989 and 11938, single 20 mg; cited from earlier work
[10] = cited from earlier work
Factor Xa [11] = biological target: T2, Factor Xa; details: 10 mg dose, cited from earlier work
[12] = cited from earlier work; remark: listed apart in the source
[13] = cited from earlier work; remark: listed apart in the source
[14] = Period III (rivaroxaban and verapamil), Group 2: Normal Renal Function, individual subjects
[15] = single 10 mg dose with a strong CYP3A4/Pgp inhibitor

T2 sequence (P00742 235-488 limits assumed): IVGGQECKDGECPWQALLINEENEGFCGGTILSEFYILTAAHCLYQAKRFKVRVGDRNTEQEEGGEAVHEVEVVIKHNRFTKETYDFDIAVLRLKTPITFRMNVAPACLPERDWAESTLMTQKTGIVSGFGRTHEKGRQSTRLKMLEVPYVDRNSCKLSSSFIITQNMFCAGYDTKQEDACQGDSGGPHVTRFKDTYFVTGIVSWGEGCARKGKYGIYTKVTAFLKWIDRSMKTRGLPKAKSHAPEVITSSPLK
T2 sequence (P00742 41-179 partner limits assumed): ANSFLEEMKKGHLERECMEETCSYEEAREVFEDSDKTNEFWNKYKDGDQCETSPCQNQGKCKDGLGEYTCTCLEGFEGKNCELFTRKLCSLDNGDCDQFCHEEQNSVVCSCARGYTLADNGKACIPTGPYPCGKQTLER
T1 sequence (P08183 whole entry): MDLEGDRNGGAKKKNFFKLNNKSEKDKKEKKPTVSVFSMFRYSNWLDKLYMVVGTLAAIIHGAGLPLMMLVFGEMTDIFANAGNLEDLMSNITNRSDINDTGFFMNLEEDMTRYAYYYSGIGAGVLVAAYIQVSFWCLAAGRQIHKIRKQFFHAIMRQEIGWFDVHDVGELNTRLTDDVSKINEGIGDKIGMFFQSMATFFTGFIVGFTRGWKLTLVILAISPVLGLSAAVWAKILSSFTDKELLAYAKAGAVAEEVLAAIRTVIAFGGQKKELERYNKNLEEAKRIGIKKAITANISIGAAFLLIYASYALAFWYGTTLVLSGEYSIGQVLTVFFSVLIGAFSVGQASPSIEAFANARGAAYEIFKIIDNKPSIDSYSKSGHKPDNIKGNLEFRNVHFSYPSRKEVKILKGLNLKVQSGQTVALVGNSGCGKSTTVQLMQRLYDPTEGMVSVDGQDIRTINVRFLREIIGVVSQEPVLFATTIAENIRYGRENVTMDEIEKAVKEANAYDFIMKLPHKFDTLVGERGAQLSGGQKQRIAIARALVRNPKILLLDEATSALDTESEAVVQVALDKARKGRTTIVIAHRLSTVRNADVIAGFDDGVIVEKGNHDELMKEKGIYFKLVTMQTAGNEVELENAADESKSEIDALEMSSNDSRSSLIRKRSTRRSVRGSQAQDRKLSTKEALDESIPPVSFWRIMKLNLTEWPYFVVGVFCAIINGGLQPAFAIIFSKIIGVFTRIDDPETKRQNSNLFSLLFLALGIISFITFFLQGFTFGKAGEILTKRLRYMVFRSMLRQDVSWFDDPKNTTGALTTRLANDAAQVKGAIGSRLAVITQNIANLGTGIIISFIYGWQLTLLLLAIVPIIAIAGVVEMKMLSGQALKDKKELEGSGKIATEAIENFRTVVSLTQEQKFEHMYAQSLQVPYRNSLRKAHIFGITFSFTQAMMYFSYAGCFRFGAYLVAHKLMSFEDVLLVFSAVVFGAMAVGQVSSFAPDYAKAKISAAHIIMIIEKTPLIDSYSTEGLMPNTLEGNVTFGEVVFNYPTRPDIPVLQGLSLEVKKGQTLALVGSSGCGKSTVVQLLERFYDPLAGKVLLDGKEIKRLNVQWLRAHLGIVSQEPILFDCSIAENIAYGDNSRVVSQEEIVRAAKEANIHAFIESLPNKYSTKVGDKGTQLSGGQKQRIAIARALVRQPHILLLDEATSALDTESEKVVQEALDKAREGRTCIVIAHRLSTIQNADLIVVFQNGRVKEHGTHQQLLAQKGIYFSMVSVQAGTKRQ

CC[C@H]1OC(=O)[C@H](C)[C@@H](O[C@H]2C[C@@](C)(OC)[C@@H](O)[C@H](C)O2)[C@H](C)[C@@H](O[C@@H]2O[C@H](C)C[C@H](N(C)C)[C@H]2O)[C@](C)(O)C[C@@H](C)C(=O)[C@H](C)[C@@H](O)[C@]1(C)O [erythromycin]
inhibition of P-gp-mediated efflux of rivaroxaban (P-gp [1]): did not inhibit
renal elimination (unchanged) [2]: 2-15%

COc1ccc(CCNCCCC(C#N)(c2ccc(OC)c(OC)c2)C(C)C)cc1OC (centres unmarked) [norverapamil]
inhibitory potential toward P-gp (P-gp [3]): have inhibitory potential toward P-gp

O=C(NC[C@H]1CN(c2ccc(N3CCOCC3=O)cc2)C(=O)O1)c1ccc(Cl)s1 [rivaroxaban, Rivaroxaban]
CL/F/kg [4, 14]: 1.18 mL/min/kg
CL/F ([4]; 20 mg, Period I (rivaroxaban alone), Group 2: Normal Renal Function, outlier sample excluded, arithmetic mean): 1.8 mL/min/kg
half-life ([4]; 20 mg): 9.44 h
Tmax ([4]; 20 mg): 0.5 h
CL/F [4, 14]: 1.11 mL/min/kg
CL/F ([4]; Period III (rivaroxaban and verapamil), Group 2: Normal Renal Function, median): 1.11 mL/min/kg
half-life [4]: 6.56 h
Tmax [4]: 0.5 h
rivaroxaban plasma concentrations [5]: higher rivaroxaban plasma concentrations
prothrombin time (PT) (prothrombin time; concomitant verapamil vs rivaroxaban alone): prolonged PT
relationship between pharmacokinetics (plasma concentration) and pharmacodynamics (PT) (prothrombin time; normal renal function and mild renal insufficiency, Day 1 and Day 15): clear linear relationship
Factor Xa inhibition (Factor Xa [6]): increased Factor Xa inhibition
risk of major bleeding (Group a) ([7]; AUC approximately 2,026 μg·hr/L): about 3%
risk of major bleeding vs Group a (Group b) ([7]; mild renal impairment, 20 mg rivaroxaban and 360 mg verapamil): 2.5 times
risk of major bleeding vs Group a (Group c) ([7]; three Group b subjects with highest AUCinf): at least 5 times
share of reported rivaroxaban serious bleeding adverse events [8]: 30%
AUC, average geometric mean (Group a) [9]: approximately 2,026 μg·hr/L
rivaroxaban dose eliminated in urine as unprocessed active drug ([10]; in vivo): ~36%
rivaroxaban dose eliminated through active renal secretion ([10]; in vivo): 30%
rivaroxaban dose eliminated through glomerular filtration ([10]; in vivo): 6%
share of rivaroxaban clearance by CYP3A4 ([10]; in vivo): approximately 18%
share of rivaroxaban metabolized by CYP2J2 ([10]; in vivo): 14%
rivaroxaban dose subject to metabolic degradation ([10]; liver oxidative and hydrolytic pathways): Approximately two-thirds
AUEC for Factor Xa inhibition vs healthy subjects (Factor Xa [11]; mild renal impairment): 1.5 fold
AUEC for Factor Xa inhibition vs healthy subjects (Factor Xa [11]; moderate renal impairment): 1.86 fold
AUEC for Factor Xa inhibition vs healthy subjects (Factor Xa [11]; severe renal impairment): 2.0 fold
rivaroxaban exposure increase ([12]; concomitant clarithromycin): 54%
rivaroxaban exposure increase ([12]; concomitant erythromycin): 34%
rivaroxaban exposure increase ([12]; concomitant fluconazole): 42%
Cmax, upper boundary of 90% confidence interval ([13]; 20 mg rivaroxaban with food, study 11938): 317 ng/mL
steady state AUC, upper bound of 90% confidence interval (Label A) ([13]; 20 mg rivaroxaban): about 3,792 μg·hr/L
steady state Cmax, upper bound of 90% confidence interval ([13]; 20 mg rivaroxaban): 275 ng/mL
Cmax [13, 15]: 268 ng/mL
estimated steady state AUC (Label B) [13, 15]: about 3,404 μg·hr/L
steady state AUC, upper boundary of 90% confidence interval (Label C) ([13]; single 20 mg dose after a meal): about 2,448 μg·hr/L
